Test results as given in PubChem BioAssay AID330 (DTP/NCI, 2004).
Several values for one entry are separate records, joined by “and”; a condition that tells them apart may be missing. Equal values may be shown once. Inconclusive results and toxic doses are left out. The calls were made as follows: active = survival T/C of 150% or more; inactive = T/C below 125% in these data.

System: P388 leukemia ip, CD2F1 mice, survival T/C
Experiment: NCI In Vivo Anticancer Drug Screen. Data for tumor model P388 Leukemia (intraperitoneal) in CD2F1 (CDF1) mice
Conditions: endpoint: median survival time, higher = longer survival
Method in brief: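 Mice carrying the transplanted tumor received test compound or vehicle. Survival was recorded in each group, and the value is the treated-group measurement divided by that of the vehicle-treated control group.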

[1] = dose: 50.0 mg/kg/injection, schedule: Q01DX009 (ip), vehicle: saline with Tween-80
[2] = dose: 100.0 mg/kg/injection, schedule: Q01DX009 (ip), vehicle: saline with Tween-80
[3] = dose: 200.0 mg/kg/injection, schedule: Q01DX009 (ip), vehicle: saline with Tween-80
[4] = dose: 50.0 mg/kg/injection, schedule: Q01DX005 (ip), vehicle: Klucel (hydroxypropylcellulose) (HPC)
[5] = dose: 100.0 mg/kg/injection, schedule: Q01DX005 (ip), vehicle: Klucel (hydroxypropylcellulose) (HPC)
[6] = dose: 200.0 mg/kg/injection, schedule: Q01DX005 (ip), vehicle: Klucel (hydroxypropylcellulose) (HPC)
[7] = dose: 50.0 mg/kg/injection, schedule: Q04DX003 (ip), vehicle: saline with Tween-80
[8] = dose: 50.0 mg/kg/injection, schedule: Q01DX005 (ip), vehicle: saline with Tween-80
[9] = dose: 100.0 mg/kg/injection, schedule: Q01DX005 (ip), vehicle: saline with Tween-80

Measured: T/C

CCc1cnc2ccccc2c1/C=C/c1ccc(N(C)C)cc1
inactive: [1] 98 % of control | [2] 105 % of control | [3] 103 % of control

Cc1cc(C2C(=O)c3ccccc3C2=O)cc(C(C)(C)C)c1O
inactive: dose: 100.0 mg/kg/injection, schedule: Q04DX002 (ip), vehicle: saline 115 % of control | dose: 200.0 mg/kg/injection, schedule: Q04DX002 (ip), vehicle: saline 107 % of control | dose: 400.0 mg/kg/injection, schedule: Q04DX002 (ip), vehicle: saline 96 % of control

CC[n+]1c(C)sc2ccccc21
inactive: dose: 25.0 mg/kg/injection, schedule: Q01DX005 (ip), vehicle: saline 91 % of control | dose: 50.0 mg/kg/injection, schedule: Q01DX005 (ip), vehicle: saline 94 % of control

O=C(N1CCN(C(=O)S(=O)(=O)c2ccc(F)cc2)CC1)S(=O)(=O)c1ccc(F)cc1
inactive: [4] 99 % of control | [5] 98 % of control | [6] 100 % of control

Cc1ccc(NC(=O)Oc2ccc(Cl)cc2)c([N+](=O)[O-])c1
inactive: [1] 109 % of control | [2] 100 % of control | [3] 105 % of control

Cc1ccc(Nc2ncnc3c2c(=O)n(C)c(=O)n3C)cc1
inactive: dose: 30.0 mg/kg/injection, schedule: Q01DX005 (ip), vehicle: saline with Tween-80 88 % of control | dose: 60.0 mg/kg/injection, schedule: Q01DX005 (ip), vehicle: saline with Tween-80 90 % of control | dose: 120.0 mg/kg/injection, schedule: Q01DX005 (ip), vehicle: saline with Tween-80 90 % of control

O=c1c2ccccc2sc2c1c(N(CCCl)CCCl)cc1ccccc12
inactive: dose: 25.0 mg/kg/injection, schedule: Q01DX005 (ip), vehicle: distilled water + Tween-80 92 % of control | dose: 50.0 mg/kg/injection, schedule: Q01DX005 (ip), vehicle: distilled water + Tween-80 94 % of control | dose: 100.0 mg/kg/injection, schedule: Q01DX005 (ip), vehicle: distilled water + Tween-80 94 % of control | dose: 200.0 mg/kg/injection, schedule: Q01DX005 (ip), vehicle: distilled water + Tween-80 95 % of control

CCCCC(NC(=O)C(C)N)C(=O)O (stereo not given)
inactive: dose: 50.0 mg/kg/injection, schedule: Q01DX009 (ip), vehicle: Klucel (hydroxypropylcellulose) (HPC) 98 % of control | dose: 100.0 mg/kg/injection, schedule: Q01DX009 (ip), vehicle: Klucel (hydroxypropylcellulose) (HPC) 98 % of control | dose: 200.0 mg/kg/injection, schedule: Q01DX009 (ip), vehicle: Klucel (hydroxypropylcellulose) (HPC) 95 % of control | dose: 400.0 mg/kg/injection, schedule: Q01DX009 (ip), vehicle: Klucel (hydroxypropylcellulose) (HPC) 101 % of control

O=C(CN1CC1)NCCCCCCCCNC(=O)CN1CC1
active: dose: 25.0 mg/kg/injection, schedule: Q04DX003 (ip), vehicle: saline with Tween-80 159 % of control | dose: 33.0 mg/kg/injection, schedule: Q04DX003 (ip), vehicle: saline with Tween-80 200 % of control | [7] 181 % of control and 209 % of control

CN(CC(O)C(O)CN(C)N=O)N=O (stereo not given)
inactive: dose: 100.0 mg/kg/injection, schedule: Q01DX001 (ip), vehicle: Klucel (hydroxypropylcellulose) (HPC) 88 % of control | dose: 200.0 mg/kg/injection, schedule: Q01DX001 (ip), vehicle: Klucel (hydroxypropylcellulose) (HPC) 94 % of control | dose: 400.0 mg/kg/injection, schedule: Q01DX001 (ip), vehicle: Klucel (hydroxypropylcellulose) (HPC) 100 % of control

Cc1ccc(C(O)(CNC2CCCCC2)c2ccccc2)cc1 (stereo not given)
inactive: dose: 25.0 mg/kg/injection, schedule: Q01DX009 (ip), vehicle: saline sonified 104 % of control | dose: 50.0 mg/kg/injection, schedule: Q01DX009 (ip), vehicle: saline sonified 104 % of control

CC(NNC(=S)N1CCCC1)c1ccccn1 (stereo not given)
inactive: [8] 107 % of control | [9] 105 % of control

ON1c2ccc3ccccc3c2C=CC1(c1ccccc1)c1ccccc1
inactive: [8] 103 % of control | [9] 103 % of control | dose: 200.0 mg/kg/injection, schedule: Q01DX005 (ip), vehicle: saline with Tween-80 97 % of control

Cn1c2c(c(=O)c3c4[nH]c5c(c(=O)c4ccc31)CCCC5)CCCC2
inactive: [4] 108 % of control | [7] 103 % of control | [5] 101 % of control | dose: 100.0 mg/kg/injection, schedule: Q04DX003 (ip), vehicle: saline with Tween-80 103 % of control and 96 % of control | [6] 94 % of control | dose: 200.0 mg/kg/injection, schedule: Q04DX003 (ip), vehicle: saline with Tween-80 99 % of control | dose: 400.0 mg/kg/injection, schedule: Q04DX003 (ip), vehicle: saline with Tween-80 100 % of control and 94 % of control
